Inconclusive results and toxic doses are left out. Cut-off read from the data, not from the text of the source: active = T/C of 150% or more; inactive = T/C below 125%.
Test system: L1210 leukemia ip in BDF1 mice, survival T/C
Test: NCI In Vivo Anticancer Drug Screen. Data for tumor model L1210 Leukemia (intraperitoneal) in B6D2F1 (BDF1) mice
Conditions: endpoint: mean survival time, higher = longer survival
How it was run: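 Tumor was transplanted into mice, which were then dosed with test compound or vehicle alone. Survival was recorded for each group, and the treated figure was expressed relative to the control figure.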

[1] = dose: 100.0 mg/kg/injection, schedule: Q04DX003 (ip), vehicle: saline
[2] = dose: 200.0 mg/kg/injection, schedule: Q04DX003 (ip), vehicle: saline
[3] = dose: 400.0 mg/kg/injection, schedule: Q04DX003 (ip), vehicle: saline
[4] = dose: 100.0 mg/kg/injection, schedule: Q04DX003 (ip), vehicle: saline with Tween-80
[5] = dose: 200.0 mg/kg/injection, schedule: Q04DX003 (ip), vehicle: saline with Tween-80
[6] = dose: 25.0 mg/kg/injection, schedule: Q01DX009 (ip), vehicle: saline
[7] = dose: 50.0 mg/kg/injection, schedule: Q01DX009 (ip), vehicle: saline
[8] = dose: 100.0 mg/kg/injection, schedule: Q01DX009 (ip), vehicle: saline
[9] = dose: 100.0 mg/kg/injection, schedule: Q01DX001 (ip), vehicle: saline
[10] = dose: 200.0 mg/kg/injection, schedule: Q01DX001 (ip), vehicle: saline
[11] = dose: 400.0 mg/kg/injection, schedule: Q01DX001 (ip), vehicle: saline
[12] = dose: 100.0 mg/kg/injection, schedule: Q01DX001 (ip), vehicle: carboxymethylcellulose (CMC)
[13] = dose: 200.0 mg/kg/injection, schedule: Q01DX001 (ip), vehicle: carboxymethylcellulose (CMC)
[14] = dose: 400.0 mg/kg/injection, schedule: Q01DX001 (ip), vehicle: carboxymethylcellulose (CMC)
[15] = dose: 100.0 mg/kg/injection, schedule: Q04DX003 (ip), vehicle: Klucel (hydroxypropylcellulose) (HPC)
[16] = dose: 200.0 mg/kg/injection, schedule: Q04DX003 (ip), vehicle: Klucel (hydroxypropylcellulose) (HPC)
[17] = dose: 400.0 mg/kg/injection, schedule: Q04DX003 (ip), vehicle: Klucel (hydroxypropylcellulose) (HPC)
[18] = dose: 50.0 mg/kg/injection, schedule: Q04DX003 (ip), vehicle: saline
[19] = dose: 100.0 mg/kg/injection, schedule: Q01DX001 (ip), vehicle: Klucel (hydroxypropylcellulose) (HPC)
[20] = dose: 200.0 mg/kg/injection, schedule: Q01DX001 (ip), vehicle: Klucel (hydroxypropylcellulose) (HPC)
[21] = dose: 400.0 mg/kg/injection, schedule: Q01DX001 (ip), vehicle: Klucel (hydroxypropylcellulose) (HPC)

Measured: T/C

Cc1ccc(C)c(Cl)c1Cl
inactive: dose: 75.0 mg/kg/injection, schedule: Q01DX009 (ip), vehicle: saline sonified 98 % of control | [1] 103 % of control | dose: 150.0 mg/kg/injection, schedule: Q01DX009 (ip), vehicle: saline sonified 103 % of control | [2] 108 % of control | dose: 300.0 mg/kg/injection, schedule: Q01DX009 (ip), vehicle: saline sonified 99 % of control | [3] 103 % of control

CCCCCCCCCCC1CC2CCCC3CCC4CCCC1C4C32 (centres undefined)
inactive: dose: 100.0 mg/kg/injection, schedule: Q01DX001 (ip), vehicle: saline with Tween-80 95 % of control | dose: 200.0 mg/kg/injection, schedule: Q01DX001 (ip), vehicle: saline with Tween-80 108 % of control | dose: 400.0 mg/kg/injection, schedule: Q01DX001 (ip), vehicle: saline with Tween-80 100 % of control

CC1=CC(C)(C)SC(=S)N1
inactive: dose: 75.0 mg/kg/injection, schedule: Q01DX009 (ip), vehicle: Klucel (hydroxypropylcellulose) (HPC) 98 % of control | [1] 111 % of control | dose: 150.0 mg/kg/injection, schedule: Q01DX009 (ip), vehicle: Klucel (hydroxypropylcellulose) (HPC) 104 % of control | [2] 104 % of control | dose: 300.0 mg/kg/injection, schedule: Q01DX009 (ip), vehicle: Klucel (hydroxypropylcellulose) (HPC) 108 % of control | [3] 96 % of control

CC1=NCC(C)(C)O1
inactive: [4] 98 % of control | [5] 95 % of control | dose: 400.0 mg/kg/injection, schedule: Q04DX003 (ip), vehicle: saline with Tween-80 98 % of control

CC(C)=CCC(C#N)(CCN(C)C)c1ccc2ccccc2c1 (centres undefined)
inactive: [6] 95 % of control | [7] 97 % of control | [8] 95 % of control

Nc1cccn2ncnc12
inactive: [9] 103 % of control | [10] 104 % of control | [11] 97 % of control

CCOC(=O)c1cc(OCC)nc(SC)n1
inactive: dose: 25.0 mg/kg/injection, schedule: Q01DX Z (ip), vehicle: methylcellulose (MC) 86 % of control | dose: 50.0 mg/kg/injection, schedule: Q01DX Z (ip), vehicle: methylcellulose (MC) 100 % of control

Cc1ccc(CN(C)C)c(C(O)(c2ccccc2)c2ccccc2)c1
inactive: dose: 50.0 mg/kg/injection, schedule: Q01DX001 (ip), vehicle: carboxymethylcellulose (CMC) 96 % of control | [12] 107 % of control | [13] 100 % of control | [14] 96 % of control

CCCCSP(=O)(SCCCC)N1CCCCC1
inactive: dose: 25.0 mg/kg/injection, schedule: Q04DX002 (ip), vehicle: saline with Tween-80 108 % of control | dose: 50.0 mg/kg/injection, schedule: Q04DX002 (ip), vehicle: saline with Tween-80 89 % of control | dose: 100.0 mg/kg/injection, schedule: Q04DX002 (ip), vehicle: saline with Tween-80 101 % of control

COc1ccc2c(c1)CN(S(=O)(=O)c1ccc(C)cc1)C=CC2=O
inactive: dose: 100.0 mg/kg/injection, schedule: Q01DX009 (ip), vehicle: Klucel (hydroxypropylcellulose) (HPC) 96 % of control | [15] 90 % of control | dose: 200.0 mg/kg/injection, schedule: Q01DX009 (ip), vehicle: Klucel (hydroxypropylcellulose) (HPC) 104 % of control | [16] 96 % of control | dose: 400.0 mg/kg/injection, schedule: Q01DX009 (ip), vehicle: Klucel (hydroxypropylcellulose) (HPC) 96 % of control | [17] 98 % of control

O=C1N(Cl)C(=O)C(c2ccc(C(F)(F)F)cc2)(c2ccc(C(F)(F)F)cc2)N1Cl
inactive: dose: 50.0 mg/kg/injection, schedule: Q01DX009 (ip), vehicle: saline with Tween-80 88 % of control | dose: 100.0 mg/kg/injection, schedule: Q01DX009 (ip), vehicle: saline with Tween-80 100 % of control | [4] 102 % of control | [5] 100 % of control

CCOC(=O)NNC(=O)c1ccccc1
inactive: dose: 12.5 mg/kg/injection, schedule: Q01DX009 (ip), vehicle: alcohol 100 % of control | dose: 25.0 mg/kg/injection, schedule: Q01DX009 (ip), vehicle: alcohol 90 % of control | dose: 25.0 mg/kg/injection, schedule: Q04DX003 (ip), vehicle: alcohol 103 % of control | dose: 50.0 mg/kg/injection, schedule: Q01DX009 (ip), vehicle: alcohol 89 % of control | dose: 50.0 mg/kg/injection, schedule: Q04DX003 (ip), vehicle: alcohol 101 % of control

Cc1cccc(NC(=O)Nc2cccc(C(F)(F)F)c2)c1
inactive: [12] 97 % of control | [13] 101 % of control | [14] 97 % of control

CC(=O)Oc1ccc(NC(=O)c2ccccc2)c2ccccc12
inactive: [12] 110 % of control | [13] 100 % of control | [14] 94 % of control

O=[N+]([O-])c1cccc(OCCCCBr)c1
inactive: dose: 100.0 mg/kg/injection, schedule: Q04DX003 (ip), vehicle: other 97 % of control | dose: 200.0 mg/kg/injection, schedule: Q04DX003 (ip), vehicle: other 110 % of control | dose: 400.0 mg/kg/injection, schedule: Q04DX003 (ip), vehicle: other 102 % of control

CC(=O)OC1=C(CC=C(C)C)C(=O)c2ccccc2C1=O
inactive: dose: 50.0 mg/kg/injection, schedule: Q01DX001 (ip), vehicle: water 97 % of control | dose: 100.0 mg/kg/injection, schedule: Q01DX001 (ip), vehicle: water 95 % of control | dose: 200.0 mg/kg/injection, schedule: Q01DX001 (ip), vehicle: water 100 % of control | dose: 400.0 mg/kg/injection, schedule: Q01DX001 (ip), vehicle: water 104 % of control

Cc1cc(C)c(CN)cc1C
inactive: dose: 5.0 mg/kg/injection, schedule: Q04DX003 (ip), vehicle: saline with Tween-80 95 % of control | dose: 10.0 mg/kg/injection, schedule: Q04DX003 (ip), vehicle: saline with Tween-80 95 % of control | dose: 20.0 mg/kg/injection, schedule: Q04DX003 (ip), vehicle: saline with Tween-80 95 % of control

O=c1ccccc(Br)c1O
inactive: dose: 100.0 mg/kg/injection, schedule: Q04DX003 (ip), vehicle: acetone 100 % of control | dose: 200.0 mg/kg/injection, schedule: Q04DX003 (ip), vehicle: acetone 98 % of control

COCCNCC1OC(OC)C2OC(C)(C)OC12 (centres undefined)
inactive: dose: 100.0 mg/kg/injection, schedule: Q01DX005 (ip), vehicle: saline 104 % of control | dose: 200.0 mg/kg/injection, schedule: Q01DX005 (ip), vehicle: saline 102 % of control

CN(C)C1=NC(=O)C(c2ccccc2)O1 (centres undefined)
inactive: [6] 104 % of control | [7] 111 % of control | [18] 101 % of control | [8] 111 % of control | dose: 200.0 mg/kg/injection, schedule: Q01DX009 (ip), vehicle: saline 101 % of control | [2] 100 % of control | [3] 100 % of control

CC1C(C)(C)P(=O)(c2ccccc2)C1(C)C (centres undefined)
inactive: dose: 12.5 mg/kg/injection, schedule: Q04DX003 (ip), vehicle: saline 96 % of control | dose: 25.0 mg/kg/injection, schedule: Q04DX003 (ip), vehicle: saline 96 % of control | [18] 105 % of control

CC(C)=CCC(C)c1ccccn1 (centres undefined)
inactive: [9] 100 % of control | [10] 100 % of control | [11] 97 % of control

Cc1nc2ccccc2c(Oc2ccccc2)c1-c1ccccc1
inactive: dose: 50.0 mg/kg/injection, schedule: Q01DX001 (ip), vehicle: saline 102 % of control | [9] 102 % of control | [10] 104 % of control | [11] 96 % of control

CC(CP(c1ccccc1)c1ccccc1)(CP(c1ccccc1)c1ccccc1)CP(c1ccccc1)c1ccccc1
inactive: [19] 97 % of control | [15] 111 % of control | [20] 87 % of control | [16] 105 % of control | [21] 87 % of control | [17] 90 % of control

CCOC(=S)c1ccc(S(=O)(=O)Nc2cccc3ccccc23)cc1
inactive: [19] 97 % of control | [20] 98 % of control | [21] 95 % of control

Reference: PubChem BioAssay AID248 (DTP/NCI, 2004)
